Source: patent publication US20110245173A1, “Long-Acting GLP-1 Derivatives, and Methods of Treating Cardiac Dysfunction” (priority 2008, published 2011)

How the values were obtained:
[1] = Pharmacokinetics in plasma after single bolus intravenous administration to rats; set-up: species or system Sprague Dawley rats; conditions: rat, in vivo; for AUC(0-inf) / AUC(0-t) / Cmax / clearance / half-life: male, Sprague Dawley
Procedure: GLP-1 (9-36) analogues containing C-terminal extensions (FIG. 2) were tested in 9 week old male Sprague Dawley rats to evaluate biological half-life as well as other pharmacokinetic properties of the analogues. Rats used in the study were acclimated to laboratory conditions for approximately 1 week prior to testing. Polypeptide analogues were prepared as solutions for intravenous administration (bolus injection in the jugular vein) at concentrations of 0.15 mg/mL and 1.5 mg/mL in appropriate buffers. The compounds were then injected while the animals were still under anesthesia. Blood samples were taken form each animal at no more than 5 occasions. Following dose administration, blood samples (0.3 to 0.4 mL) were obtained by jugular venipuncture (lithium heparin was used as an anticoagulant) at selected time points (0, 2.5, 5, 10 and 15 minutes or 30, 45, 60, 120 and 240 minutes). The samples were analyzed for parent drug by LC-MS/MS. Numerical data was subjected to calculation of group mean values, standard deviations and coefficients of variation (expressed as a percent), where appropriate. The pharmacokinetic analysis (non-compartmental) of plasma concentration was performed using the PhAST software program (Version 2.3-004, Pheonix International Life Sciences Inc.). The highest experimental concentration was considered the peak concentration (Cmax; observed value). Whenever possible, the observed terminal phase rate constant (Kel) was calculated from the terminal 3 or more points (non-zero and non-Cmax points) of the log-linear regression. The number of points included in the regression analysis was such as to optimize r^2 value calculated for the regression. Terminal phase half-life (t1/2) was determined by dividing 0.693 by Kel. The area under the plasma concentration of each compound versus time-curve from time zero to the last quantifiable concentration (AUC0-t) was calculated by the linear trapezoidal method (Bailer, A. J., (1988) J. Pharmacokin. Biopharm., 1, 303-309). AUC0-∞, the area under the plasma concentration versus time curve from time zero to infinity, was calculated as the sum of AUC0-t plus the ratio of the last plasma concentration to Kel. Values below the limit of quantification were assigned a value of zero for pharmacokinetic analysis.

[2] = cited from earlier work

CC[C@H](C)[C@H](NC(=O)[C@H](Cc1ccccc1)NC(=O)[C@H](CCC(=O)O)NC(=O)[C@H](CCCCN)NC(=O)[C@H](C)NC(=O)[C@H](C)NC(=O)[C@H](CCC(N)=O)NC(=O)CNC(=O)[C@H](CCC(=O)O)NC(=O)[C@H](CC(C)C)NC(=O)[C@H](Cc1ccc(O)cc1)NC(=O)[C@H](CO)NC(=O)[C@H](CO)NC(=O)[C@@H](NC(=O)[C@H](CC(=O)O)NC(=O)[C@H](CO)NC(=O)[C@@H](NC(=O)[C@H](Cc1ccccc1)NC(=O)[C@@H](NC(=O)CNC(=O)[C@@H](N)CCC(=O)O)[C@@H](C)O)[C@@H](C)O)C(C)C)C(=O)N[C@@H](C)C(=O)N[C@@H](Cc1c[nH]c2ccccc12)C(=O)N[C@@H](CC(C)C)C(=O)N[C@H](C(=O)N[C@@H](CCCCN)C(=O)NCC(=O)N[C@@H](CCCNC(=N)N)C(N)=O)C(C)C [DGS70]
AUC(0-inf) ([1]; 0.15 mg/kg): 65.1 ng·h/mL
AUC(0-t) ([1]; 0.15 mg/kg): 63.8 ng·h/mL
Cmax ([1]; 0.15 mg/kg): 1060 ng/mL
clearance ([1]; 0.15 mg/kg): 38.4 mL/min/kg
half-life ([1]; 0.15 mg/kg, T1/2: Terminal phase half-life): 1.64 min
AUC(0-inf) ([1]; 1.5 mg/kg): 679 ng·h/mL
AUC(0-t) ([1]; 1.5 mg/kg): 672 ng·h/mL
Cmax ([1]; 1.5 mg/kg): 10600 ng/mL
clearance ([1]; 1.5 mg/kg): 36.8 mL/min/kg
half-life ([1]; 1.5 mg/kg, T1/2: Terminal phase half-life): 2.22 min
half-life ([1]; 1.5 mg/kg, half-life): 1.6 to 2.2 min
Tmax: Time to Cmax ([1]; 0.15 mg/kg): 2.50 min
Tmax: Time to Cmax ([1]; 1.5 mg/kg): 2.50 min
half-life in vivo [2]: 2 to 4 min
